This experiment concerns the target T1, SIRT1 (Homo sapiens, UniProt Q96EB6).
T1 sequence (Q96EB6 1-747): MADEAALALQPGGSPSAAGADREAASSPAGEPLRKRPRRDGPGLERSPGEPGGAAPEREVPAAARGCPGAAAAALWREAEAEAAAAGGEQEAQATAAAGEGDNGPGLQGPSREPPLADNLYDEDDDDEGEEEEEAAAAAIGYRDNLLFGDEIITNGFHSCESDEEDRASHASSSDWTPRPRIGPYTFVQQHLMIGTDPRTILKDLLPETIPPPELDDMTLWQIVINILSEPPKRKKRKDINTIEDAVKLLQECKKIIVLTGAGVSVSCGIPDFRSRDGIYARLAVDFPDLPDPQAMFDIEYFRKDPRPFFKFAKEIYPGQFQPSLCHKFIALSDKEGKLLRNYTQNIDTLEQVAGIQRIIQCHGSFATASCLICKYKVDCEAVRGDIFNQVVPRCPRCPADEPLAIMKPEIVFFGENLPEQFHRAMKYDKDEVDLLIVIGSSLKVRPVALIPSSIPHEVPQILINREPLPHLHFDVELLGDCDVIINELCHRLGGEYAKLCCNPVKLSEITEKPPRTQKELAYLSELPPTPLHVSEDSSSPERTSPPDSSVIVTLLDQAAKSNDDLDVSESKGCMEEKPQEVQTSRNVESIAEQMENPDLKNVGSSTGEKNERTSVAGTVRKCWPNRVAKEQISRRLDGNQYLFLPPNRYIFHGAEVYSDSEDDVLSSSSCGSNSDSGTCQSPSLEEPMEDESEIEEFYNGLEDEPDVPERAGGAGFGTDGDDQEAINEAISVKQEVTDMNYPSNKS
Briefly: Mass spectrometry based SIRT1 deacetylase activation assay (acetylated p53-derived peptide substrate). The format is biochemical.

The mark [1] stands for this setting: 0.5 μM peptide substrate, 120 μM βNAD+, 10 nM SIRT1, 25 minutes at 25° C.
The mark [2] stands for this setting: 0.5 μM peptide substrate, 120 μM βNAD+, 10 nM SIRT1, 25 min at 25° C.
Where [3] appears, read: 0.5 μM peptide substrate, 120 μM βNAD+, 10 nM SIRT1, 25 min at 25° C., read-out: EC1.5.

Structures are written as SMILES. Where two headings read alike, the source gives them in different places.

On to `O=C(Nc1nc(CN2CCOCC2)cs1)c1cccc2[nH]c(-c3ccc(Cl)cc3C(F)F)nc12` [Compound 849], for which, under setting [1], the EC1.5 result is listed as “A (EC1.5<1.0 uM)” and the “Fold Act. (percent maximum fold activation)” value is “A (Fold activation >200%)”.

For `O=C(Nc1nccs1)c1cccc2[nH]c(-c3cccc(Cl)c3F)nc12` [Compound 257], the EC1.5 result was “B (EC1.5 1-25 uM)” and the “Fold Act. (percent maximum fold activation)” value is “A (Fold activation >200%)”.

For the molecule `O=C(Nc1ccccn1)c1cncc2nc(-c3ccc(OC[C@H](O)CO)cc3C(F)F)[nH]c12` [Compound 810], under setting [1], the EC1.5 result was “A (EC1.5<1.0 uM)” and the “Fold Act. (percent maximum fold activation)” value is on record as “A (Fold activation >200%)”.

Turning to `O=C(NC1CCOCC1)c1cccc2[nH]c(-c3ccc(Cl)cc3C(F)(F)F)nc12` [Compound 434], the “Fold Act. (percent maximum fold activation)” value under setting [2] is on record as “B (Fold Activation <200%)”. Also, the EC1.5 under setting [3] lay within 1000 to 25000 nM.

As for `O=C(Nc1ccncc1)c1cccc2[nH]c(-c3ccc(Cl)cc3C(F)(F)F)nc12` [Compound 315], the EC1.5 result is “A (EC1.5<1.0 uM)” and the “Fold Act. (percent maximum fold activation)” value is “A (Fold activation >200%)”.

For `O=C(Nc1nccs1)c1cccc2[nH]c(-c3ccc(N4CC[C@H](F)C4)cc3C(F)F)nc12` [Compound 731], under setting [1], the EC1.5 result is “A (EC1.5<1.0 uM)” and the “Fold Act. (percent maximum fold activation)” value is recorded as “A (Fold activation >200%)”.

As for `O=C(Nc1ccccn1)c1cccc2[nH]c(-c3ccccc3OC3CCNCC3)nc12` [Compound 538], the “Fold Act. (percent maximum fold activation)” value under setting [2] is listed as “A (Fold activation >200%)”. In addition, under setting [3], the EC1.5 lay in the range of 1000 to 25000 nM.

As to `O=C(NCc1ccccn1)c1cccc2[nH]c(-c3cccc(N4CCOCC4)c3)nc12` [Compound 471], the “Fold Act. (percent maximum fold activation)” value under setting [2] is “A (Fold activation >200%)”. In addition, the EC1.5 under setting [3] is 1000 to 25000 nM.

`Cc1cc(C)nc(NC(=O)c2cccc3[nH]c(-c4cc(F)ccc4C(F)(F)F)nc23)c1` [Compound 379]: the EC1.5 entry was “A (EC1.5<1.0 uM)” and the “Fold Act. (percent maximum fold activation)” value was “A (Fold activation >200%)”.

On to `O=C(Nc1nccs1)c1cccc2[nH]c(-c3ccc(F)c(C(F)(F)F)c3)nc12` [Compound 216], for which the EC1.5 result is recorded as “C (EC1.5 >25 uM)” and the “Fold Act. (percent maximum fold activation)” value was “B (Fold Activation <200%)”.

Regarding `O=C(NC1CCOCC1)c1cccc2[nH]c(-c3ccc(F)cc3C(F)(F)F)nc12` [Compound 436], under setting [2], the “Fold Act. (percent maximum fold activation)” value was “B (Fold Activation <200%)”. Also, the EC1.5 under setting [3] is 1000 to 25000 nM.

For the molecule `O=C(Nc1ccccn1)c1cccc2nc(-c3ccc(N4CCCC4)cc3C(F)F)[nH]c12` [Compound 766], under setting [1], the EC1.5 entry is listed as “B (EC1.5 1-25 uM)” and the “Fold Act. (percent maximum fold activation)” value is “A (Fold activation >200%)”.

For the molecule `O=C(Nc1nc(CN2CCOCC2)cs1)c1cccc2[nH]c(-c3cc(F)cc(F)c3)nc12` [Compound 820], under setting [1], the EC1.5 result is reported as “B (EC1.5 1-25 uM)” and the “Fold Act. (percent maximum fold activation)” value was “A (Fold activation >200%)”.

In the case of `O=C(Nc1cccc2[nH]c(-c3cc(F)ccc3C(F)(F)F)nc12)c1cscn1` [Compound 384], the EC1.5 result was “B (EC1.5 1-25 uM)” and the “Fold Act. (percent maximum fold activation)” value is recorded as “A (Fold activation >200%)”.

Take `O=C(Nc1ccccn1)c1cccc2[nH]c(-c3cc(Cl)ccc3OCCN3CCOCC3)nc12` [Compound 502]: under setting [2], the “Fold Act. (percent maximum fold activation)” value was “A (Fold activation >200%)”. Also, under setting [3], the EC1.5 was 1000 to 25000 nM.

As for `O=C(Nc1ccccn1)c1cc(N2CCCC2)cc2[nH]c(-c3ccccc3C(F)F)nc12` [Compound 791], under setting [1], the EC1.5 result is recorded as “A (EC1.5<1.0 uM)” and the “Fold Act. (percent maximum fold activation)” value is on record as “A (Fold activation >200%)”.

For `Cc1cnc(NC(=O)c2cncc3nc(-c4ccc(OC[C@H](O)CO)cc4C(F)F)[nH]c23)s1` [Compound 809], under setting [1], the EC1.5 result is reported as “A (EC1.5<1.0 uM)” and the “Fold Act. (percent maximum fold activation)” value is recorded as “A (Fold activation >200%)”.

For the molecule `Cc1ccc(-c2nc3c(C(=O)Nc4cccc(CN5CCOCC5)n4)cccc3[nH]2)cn1` [Compound 815, 2-(6-methylpyridin-3-yl)-N-(6-(morpholinomethyl)pyridin-2-yl)-1H-benzo[d]imidazole-4-carboxamide], under setting [1], the EC1.5 entry is listed as “A (EC1.5<1.0 uM)” and the “Fold Act. (percent maximum fold activation)” value is given as “A (Fold activation >200%)”.

Consider `O=C(Nc1ccc(CN2CCCC2)cn1)c1cccc2[nH]c(-c3cc(F)ccc3C(F)(F)F)nc12` [Compound 625], for which, under setting [1], the EC1.5 entry was “A (EC1.5<1.0 uM)” and the “Fold Act. (percent maximum fold activation)” value is recorded as “A (Fold activation >200%)”.

As for `O=C(Nc1cccnn1)c1cc(N2CCOCC2)cc2[nH]c(-c3ccc(F)cc3C(F)(F)F)nc12` [Compound 692], under setting [1], the EC1.5 entry is given as “A (EC1.5<1.0 uM)” and the “Fold Act. (percent maximum fold activation)” value is given as “A (Fold activation >200%)”.

For the molecule `C[C@@H]1CN(c2cccc(-c3nc4c(C(=O)Nc5nccs5)cccc4[nH]3)c2)C[C@H](C)O1` [Compound 576, 2-(3-(2,6-dimethylmorpholino)phenyl)-N-(thiazol-2-yl)-1H-benzo[d]imidazole-4-carboxamide], under setting [2], the “Fold Act. (percent maximum fold activation)” value is given as “A (Fold activation >200%)”. In addition, the EC1.5 under setting [3] was less than 1000 nM.

For `O=C(Nc1cccnc1)c1cccc2[nH]c(-c3ccc(N4CCOCC4)cc3C(F)F)nc12` [Compound 554], the “Fold Act. (percent maximum fold activation)” value under setting [2] was “A (Fold activation >200%)”. For the same molecule, the EC1.5 under setting [3] was less than 1000 nM.

`O=C(Nc1cccc(OC[C@H](O)CO)c1)c1cccc2[nH]c(-c3ccncc3)nc12` [Compound 783]: under setting [1], the EC1.5 entry is on record as “A (EC1.5<1.0 uM)” and the “Fold Act. (percent maximum fold activation)” value is recorded as “A (Fold activation >200%)”.

As to `O=C(Nc1nccs1)c1cccc2[nH]c(-c3c(F)cccc3C(F)(F)F)nc12` [Compound 264], the EC1.5 result is reported as “B (EC1.5 1-25 uM)” and the “Fold Act. (percent maximum fold activation)” value is given as “A (Fold activation >200%)”.

For the molecule `O=C(Nc1nc(CN2CCOCC2)cs1)c1cccc2[nH]c(-c3ccccc3C(F)F)nc12` [Compound 845], under setting [1], the EC1.5 result is recorded as “A (EC1.5<1.0 uM)” and the “Fold Act. (percent maximum fold activation)” value is “A (Fold activation >200%)”.

Turning to `O=C(Nc1cccc(OC2CCNCC2)c1)c1cccc2[nH]c(-c3cc(F)ccc3C(F)(F)F)nc12` [Compound 525], the “Fold Act. (percent maximum fold activation)” value under setting [2] was “A (Fold activation >200%)”. Moreover, the EC1.5 under setting [3] is less than 1000 nM.

As for `O=C(Nc1nccs1)c1cccc2[nH]c(-c3ccccc3N3CCCC3)nc12` [Compound 280], the EC1.5 entry is on record as “B (EC1.5 1-25 uM)” and the “Fold Act. (percent maximum fold activation)” value is “A (Fold activation >200%)”.

`O=C(Nc1ccccn1)c1cccc2[nH]c(-c3ccc(N4CCOCC4)cc3C(F)F)nc12` [Compound 553]: the “Fold Act. (percent maximum fold activation)” value under setting [2] is on record as “A (Fold activation >200%)”. In addition, the EC1.5 under setting [3] was less than 1000 nM.

`O=C(Nc1cccnc1)c1cccc2[nH]c(-c3ccccc3OC3CCNCC3)nc12` [Compound 539]: under setting [2], the “Fold Act. (percent maximum fold activation)” value is reported as “A (Fold activation >200%)”. The EC1.5 under setting [3] was in the range of 1000 to 25000 nM.

As to `O=C(Nc1cccc(OC[C@H](O)CO)c1)c1cccc2[nH]c(-c3cccc(F)c3)nc12` [Compound 781], under setting [1], the EC1.5 entry is listed as “A (EC1.5<1.0 uM)” and the “Fold Act. (percent maximum fold activation)” value was “A (Fold activation >200%)”.

`Cc1cc(C)nc(NC(=O)c2cccc3[nH]c(-c4ccccc4C(F)(F)F)nc23)c1` [Compound 345]: the EC1.5 result is “A (EC1.5<1.0 uM)” and the “Fold Act. (percent maximum fold activation)” value was “A (Fold activation >200%)”.

Consider `O=C(Nc1nccs1)c1cccc2[nH]c(-c3cc(N4CCOCC4)ccc3C(F)(F)F)nc12` [Compound 448], for which the “Fold Act. (percent maximum fold activation)” value under setting [2] was “A (Fold activation >200%)”. Besides, the EC1.5 under setting [3] was less than 1000 nM.

With `O=C(Nc1cccc(CN2CCCC2)n1)c1cccc2[nH]c(-c3ccc(Cl)cc3C(F)(F)F)nc12` [Compound 622], under setting [1], the EC1.5 entry is listed as “A (EC1.5<1.0 uM)” and the “Fold Act. (percent maximum fold activation)” value is listed as “A (Fold activation >200%)”.

On to `O=C(Nc1cc[nH]n1)c1cccc2[nH]c(-c3cccc(C(F)(F)F)c3)nc12` [Compound 207], for which the EC1.5 entry was “B (EC1.5 1-25 uM)” and the “Fold Act. (percent maximum fold activation)” value is recorded as “A (Fold activation >200%)”.

In the case of `CC(C)N1CCN(c2cccc(-c3nc4c(C(=O)Nc5nccs5)cccc4[nH]3)c2)CC1` [Compound 529], the “Fold Act. (percent maximum fold activation)” value under setting [2] was “A (Fold activation >200%)”. Besides, under setting [3], the EC1.5 was less than 1000 nM.

On to `O=C(Nc1ccc(CN2CCCC2)cn1)c1cccc2[nH]c(-c3ccccc3C(F)(F)F)nc12` [Compound 541], for which the “Fold Act. (percent maximum fold activation)” value under setting [2] is “A (Fold activation >200%)”. Besides, the EC1.5 under setting [3] is less than 1000 nM.

As to `O=C(Nc1nccs1)c1cncc2[nH]c(-c3ccc(N4CCCC4)cc3C(F)F)nc12` [Compound 799], under setting [1], the EC1.5 entry was “A (EC1.5<1.0 uM)” and the “Fold Act. (percent maximum fold activation)” value was “A (Fold activation >200%)”.

The values above are taken from patent US8846947B2, “Benzimidazoles and related analogs as sirtuin modulators” (GlaxoSmithKline LLC, priority 2008, dated 2014).
